Five molecules from patent publication US7341991B2, “Inhibitors of amyloid precursor protein processing” (Posco, priority 2004, dated 2008) can be followed below.

“Also recorded” adds a separate entry of the source. Where no end group is shown, it is not given here.

The target in data set [1] is T1, Sub-ST6Gal1 (DYEALTLQAKEFQMPKSQE) (Rattus norvegicus, UniProt P13721).
T1 construct: 19 amino acid region (DYEALTL/QAKEFQMPKSQE) that contains the β-cleavage site for investigation was chosen; purchased Peptron, Inc; host or cells: chemical synthesis
In words: Binding of bio-Sub-ST6Gal1 to immobilized HC peptide. To be noted: peptide coupled on microtiter plate. Here is the method:
(§1) Reacti-Bind™ maleic anhydride-activated polystyrene plate (Pierce, IL, USA) was coated with 50 μl of HC peptide (200 μM in distilled water) by chemical coupling for 3 h at room temperature (RT) and washed three times with phosphate buffered saline (PBS) containing 0.05% tween 20 (PBST). The plate was blocked with blocking buffer (0.5% gelatin in PBS) for 1 h at RT. After discarding blocking buffer, biotinylated BACE1 substrates (200 μM) in blocking buffer was applied on the plate and incubated for 2.5 h at RT. Each well was washed three times with PBST. The bound biotinylated BACE1 substrates were detected by incubation with streptavidin-horseradish peroxidase (Str-HRP, 125 mU/ml in blocking buffer) for 2 h at RT. Color reaction was carried out with 50 μl of 3,3′,5,5′-Tetramethylbenzidine Liquid Substrate (Sigma-Aldrich, MO, USA). After stopping the reaction by addition of an equal volume of 1 N HCl, absorbance at 450 nm was read in an automated ELISA reader (EL 312e, Bio-Tek Instruments, VT, USA). All assays were carried out in duplicate.
It was investigated if HC peptide would show specificity for APP in terms of the inhibition of cleavage by BACE1. ST6Gal1 is also cleaved by BACE1. For this experiment, 19 amino acid region (DYEALTL/QAKEFQMPKSQE) that contains the β-cleavage site for investigation was chosen. The 19 amino acid peptide was designated as Sub-ST6Gal1. […]

The target of data set [2] is T2, cleavage of Sub-ST6Gal1 by rhBACE1 (Rattus norvegicus, UniProt P13721).
T2 construct: Sub-ST6Gal1 (50 μM, DYEALTLQAKEFQMPKSQE) peptide corresponding to the β-cleavage site of ST6Gal1; purchased R&D Systems (enzyme); A&Pep Co., Inc. (non-labelled peptides)
As to the kind of experiment: HPLC analysis of cleavage of ST6Gal1 substrate by β-secretase. Conditions: up to 10 inhibitor/substrate ratio; Sub-ST6Gal1 50 μM, 500 nM rhBACE1. It counts as biochemical, human. An excerpt:
(§2) One of the advantages of the APP inhibitor described in the present invention is that it is a peptide or a mimetic that bind to the β-secretase cleavage site of APP, thus not affecting other β-secretase substrates. To confirm the specificity of the inventive APP inhibitor, two different types of substrates were used, APP Sub M and ST6Gal1. Both substrates are cleaved by β-secretase under normal conditions and the effect of the inventive APP inhibitor on the substrate cleavage was monitored by HPLC (See the schematic diagram in FIG. 16.) To carry out these experiments, the concentration of β-secretase required for cleavage of both substrates was determined as shown in FIG. 17. For substantial cleavage of ST6Gal1 substrate, 420 nM of the enzyme was required. Therefore, 420 nM of β-secretase was used for the following experiment.
Various concentrations of HC peptide were preincubated with either Sub M (50 μM) or Sub-ST6Gal1 (50 μM, DYEALTLQAKEFQMPKSQE) peptide corresponding to the β-cleavage site of ST6Gal1 for 2 h at RT. The mixtures containing Sub M was treated with 50 nM of rhBACE1 and that containing Sub-ST6Gal1 was treated with 500 nM enzyme for 12 h at RT. Roughly 50% of each BACE1 substrate was cleaved in the absence of HC peptide. The cleavage products were separated on a C18 reversed-phase HPLC column as described above.

Data set [3] relates to cleavage of Substrate M by rhBACE (recombinant human β-secretase). In words: Fluorometric (FRET) assay for cleavage of F-Substrate M by β-secretase. It counts as biochemical. To be noted: for inhibitory activity group on Substrate M cleavage: tested at various concentrations (FIG. 8). The text has this: This assay system utilizes fluorescence resonance energy transfer (FRET) technology. Substrate M was synthesized with two fluorophores, a fluorescent donor and a proprietary quenching acceptor (purchased from a commercial source, R&D Systems). […] Upon cleavage of substrate by β-secretase, the fluorophore is separated from the quenching group, restoring the full fluorescence yield of donor.
Substrate labeled with fluorophores will be called F-Substrate M (R&D Systems). Recombinant human β-secretase will be called rhBACE (recombinant human β-site APP cleavage enzyme) (purchased from R&D systems).
[…] Cleavage by rhBACE was detected by reading emitted fluorescence level.
In this assay system, fluorescence resonance energy transfer (FRET) technology was utilized. […] After pre-incubation, substrate and HC peptide mixture in assay buffer was transferred to FluoroNunc™ 96 well white plate (Nunc, Roskilde, Denmark), and rhBACE1 (70 nM) was added. Time-dependent emission of fluorescence (excitation at 320 nm, emission at 405 nm) was monitored in a Molecular Devices SpectraMax Gemini EM fluorescence reader (CA, USA) for 1 h at 37° C. All assays were carried out in duplicate.

The test system of data set [4] is APP processing in HEK293-APP cells. As to the kind of experiment: Cell based assay of APP processing (βCTF, Western blot) in HEK293-APP cells. Also noted: species or system human. Conditions: βCTF. The protocol:
In the neuronal cells of the brain, APP is processed by α-secretase or β-secretase. To investigate the effects of the inhibitors on the cell, a cell based assay system was developed as described in FIG. 10. C-terminal fragment of APP remaining on the cell membrane was detected by Western blot. The resulting C-terminal fragments, αCTF or βCTF are further processed by γ-secretase. However, if the cells are treated with the γ-secretase inhibitor, this processing is blocked. As a result, αCTF or βCTF accumulate in the cell. If β-secretase inhibitor or APP inhibitor is added, this processing is blocked and βCTF disappears.
To test APP inhibitor activities in cells, three complementary peptides, c-Sub M, c-Sub MΔC6, and c-Sub MΔN1C1, which show high absorbance in binding test, were added to whole cell extracts of HEK293-APP cells (Lanes 2, 3, and 4 in FIG. 11). In addition, γ-secretase inhibitor and cholesterol were added to the cells to increase βCTF level. Commercially available peptide-based β-secretase inhibitor was included as control (Lane 6, FIG. 11). To detect the N-terminal fragment of β-amyloid which is a product of APP processing, 6E10 antibody was employed. […] Recently, it has been reported that the commercially available peptide-based inhibitor had to be linked to an oligoarginine transporter peptide to have inhibitory activity against cells. Therefore, mimetic approach is adopted to produce cell permeable analogs. (Chang et al. J. Neurochemistry 2004; 89:1409-1416).
After confirming the ability of the oligo-arginine coupled APP inhibitors to enter the cells, the inhibitors were applied to HEK293-APP cells overexpressing APP to test their inhibitory activities on APP processing. […] This inhibitor started to show significant inhibitory activity beginning from 0.1 μM (lower panel).
(In general: Immunoblotting shows a protein as a band on a membrane.)

In data set [5] the test system is cleavage of Sub M by rhBACE1. As to the kind of experiment: HPLC analysis of cleavage of Substrate M by β-secretase. It counts as biochemical. Conditions: 25-fold amount of inhibitor; 420 nM β-secretase. Here is the method:
Substrate M (100 μM) was preincubated with complementary peptides ([…]) in assay buffer (100 μl) overnight at RT. rhBACE (140 nM) in assay buffer was added and incubated for 11 hr at RT. Cleavage products of Substrate M by rhBACE were quantitated after separation by C-18 reversed-phase column chromatography (GRACE VyDAC).
as §2
Reversed-phase HPLC was also used to analyze the products of enzyme action in vitro. […] The cleavage products were identified at 215 nm and quantitated by integrating the area under each peak. […]

Data set [6] has as its system γ-secretase (membrane fractions of N2a cells). In words: γ-Secretase activity assay on membrane fractions of N2a cells. Type of data set: biochemical, mouse. Conditions: 200 μM peptide, 12.5 μM fluorogenic substrate, 1 hour preincubation. Here is the method:
Since γ-secretase is composed of four components, cloning of γ-secretase gene is impossible. Therefore, cell extracts were used as γ-secretase source. To obtain the cell extracts, after cell lysis with extraction buffer, the lysate was centrifuged at 10,000×g for 1 minute. Afterward, 2× reaction buffer and fluorogenic substrate was mixed and added to the cell lysate. Then, this mixture was incubated at 37° C. and γ-secretase activity was detected at excitation 335 to 355 nm and emission 495 to 510 nm.
γ-Secretase activity assay was performed on membrane fractions of N2a cells in the presence of several complementary peptides. After 12.5 μM fluorogenic substrate and 200 μM each of the complementary peptides were preincubated for 1 hour, γ-secretase was added to the mixture. In the course of time, the fluorogenic substrate was cleaved by the γ-secretase.

For data set [7], the system named is γ-secretase cleavage in KEK293 APP cells. In words: Cell based γ-secretase assay (α-CTF, Western). Also noted: species or system human. To be noted: 9 hours treatment, α-CTF accumulation. Here is the method:
In order to test these peptides in the cell for their inhibitory effect on γ-secretase cleavage, a cell based assay was developed. After KEK293 APP cells were cultured in 6 well culture plates with 90% confluency, the cells were treated for 9 hours with N-[N-(3,5-difluorophenacetyl)-L-alanyl]-(S)-phenylglycine t-butyl ester (DAPT) (Dovey H F et al, J. Neurochemistry 2001; 76:173-181), which is a known γ-secretase inhibitor, and complementary peptides. The cells in each well were lysed and these lysates were separated with 15% tris-tricine gel. Western analysis was performed with R1 antibody as primary antibody and goat anti-rabbit-HRP as secondary antibody.

Data set [8] deals with T3, Substrate W (SEVKMDAEFR, β-secretase cleavage site of wild type APP) (Homo sapiens, UniProt P05067).
T3 construct: purchased Peptron, Inc; host or cells: chemical synthesis
As to the kind of experiment: Binding of biotin-labeled Substrate W to immobilized complementary (HC) peptides. The protocol:
(§3) Complementary peptides (0.2, 2, 20, and 200 μM) were dissolved in phosphate buffered saline (PBS) (pH 7.4) and fixed to microtiter wells for 5 hr at 37° C. The wells were blocked with blocking buffer (3% BSA/PBS) for 1 hr at 37° C. Either N-terminally biotinylated Substrate W or M (20 μM) in blocking buffer was added and incubated for overnight at 4° C. Streptavidin-horseradish peroxidase in blocking buffer was added to detect resulting bound substrates. The plate was incubated for 2 hr at room temperature (RT), followed by addition of 3, 3′, 5,5′-tetramethyl-benzidine (TMB) as substrate for horseradish peroxidase for color reaction.
In particular, for Substrate W, complementary peptides (200 μM) dissolved in phosphate buffered saline (PBS) (pH 7.4) were chemically coupled to Reacti-Bind Maleic Anhydride Activated Polystyrene wells (Pierce Biotechnology, Inc.) for overnight at room temperature (RT). Remaining active sites of the plate were inactivated by adding ethanolamine (1 M) for 1 hr at RT. The wells were blocked with blocking buffer (3% BSA/PBS) for 1 hr at RT. N-terminally biotinylated Substrate W (20 μM) in blocking buffer was added and incubated for 3 hr at RT. Streptavidin-horseradish peroxidase in blocking buffer was added to detect resulting bound substrates. The plate was incubated for 2 hr at room temperature (RT), followed by addition of 3,3′,5,5′-tetramethyl-benzidine (TMB) as substrate for horseradish peroxidase for color reaction.
as §1

A further data set has as its target T4, rhBACE1 (Homo sapiens, UniProt P56817).
T4 construct: purchased R&D Systems
As to the kind of experiment: ELISA binding of rhBACE1 to immobilized c-Sub M. An excerpt: In one embodiment of the present invention, four HC decapeptides targeted to either wild type APP or APPsw may be designed. […] Therefore, there is possibility that c-Sub M or any compounds derived from c-Sub M may inhibit production of Aβ from wild type APP in cells.
In general terms: In an ELISA, binding on a coated surface is turned into a signal by an enzyme label.

For data set [9], the system named is Substrate M (SEVNLDAEFR, β-secretase cleavage site of APPsw). In words: Binding of biotin-labeled Substrate M to immobilized complementary (HC) peptides. To be noted: biotin-labeled Sub M, peptide immobilized on plate. Here is the method:
as §3, §1

T4 sequence (P56817 46-501): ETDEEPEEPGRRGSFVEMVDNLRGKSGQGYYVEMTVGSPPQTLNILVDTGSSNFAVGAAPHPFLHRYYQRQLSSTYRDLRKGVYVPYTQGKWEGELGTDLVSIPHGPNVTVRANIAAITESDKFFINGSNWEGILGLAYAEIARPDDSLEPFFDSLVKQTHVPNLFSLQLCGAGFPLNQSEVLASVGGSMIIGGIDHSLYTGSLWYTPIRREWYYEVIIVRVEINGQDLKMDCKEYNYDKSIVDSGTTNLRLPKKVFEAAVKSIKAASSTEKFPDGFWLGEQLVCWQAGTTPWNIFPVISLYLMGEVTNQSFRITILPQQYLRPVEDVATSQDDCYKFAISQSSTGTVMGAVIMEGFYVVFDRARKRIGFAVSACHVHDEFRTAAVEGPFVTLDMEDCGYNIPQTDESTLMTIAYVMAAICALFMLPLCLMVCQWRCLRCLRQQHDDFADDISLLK

EFCIQIHF [c-Sub M ΔN1C1]: in data set [1], the “binding of bio-Sub-ST6Gal1” value is recorded as “also bound”. Moreover, the “inhibition of cleavage of Sub-ST6Gal1” value in data set [2] is given as “about 10%”. Besides, in data set [3], the “inhibitory activity group on Substrate M cleavage” value (shortened to “inhibitory activity group”) is “most active”. Besides, the “inhibitory activity on APP processing” value in [4] is reported as “none of the inhibitors tested showed inhibitory activity”.
For FCIQIHF (FCIQIHF-NH2) [c-Sub M ΔN2C1], the “inhibitory activity group” value in data set [3] is recorded as “most active”. Besides, in [5], the “Sub M cleavage blocked” value is “about 60%”.
Take PQQYRCHRQR [rCh2 (3′→5′)]: the “inhibitory effect on γ-secretase activity” value in data set [6] is on record as “about 80%”.
Turning to `C[C@H](NC(=O)Cc1cc(F)cc(F)c1)C(=O)N[C@H](C(=O)OC(C)(C)C)c1ccccc1` [DAPT, N-[N-(3,5-difluorophenacetyl)-L-alanyl]-(S)-phenylglycine t-butyl ester], the “inhibition of γ-secretase activity in cells” value in data set [7] is on record as “inhibits γ-secretase activity very effectively”.
As for SEFCIQIHFR-NH2 [c-Sub M, SEFCIQIHFR], the “binding to Sub W relative to c-Sub W” value in [8] (bio-Sub W) was 4 fold. In data set [8] (biotin-labeled Sub W, peptide immobilized on plate), the “binding to Substrate W” value was “binds the wild type substrate Sub W efficiently”. Besides, the “binding to rhBACE1” value on rhBACE1 is “does not bind to rhBACE1”. In addition, the “inhibition of cleavage of Substrate M by β-secretase” value in data set [3] (in vitro, rhBACE1) is “inhibit cleavage”. In addition, the “inhibitory activity group” value in data set [3] is given as “less activity”. Besides, in the data set on HEK293-APP cells, the “entry / transport into the cells” value is “does not enter the cells”. The “binding to Substrate M” value is “binds to Sub M appreciably and bind and binds its substrate Sub M and highest binding” in data set [9]; “bound” in data set [9] (listed as c-Sub). In data set [4], the “inhibitory activity on APP processing” value is “does not inhibit the processing of APP in cells; also recorded: none of the inhibitors tested showed inhibitory activity”.
